Measured values from patent US9492456B2, “Valomaciclovir polymorphs” (EPIPHANY BIOSCIENCES, INC., priority 2007, dated 2016).
Entries after “also recorded” stand apart in the source; their conditions may differ. Read-outs that look alike come from different tables or passages of the source.

Legend:
[1] = tested on: zoster; settings: suspension, 250, 500 and 750 mg BID for 7 days, zoster patients, acyclovir control; cited from earlier work
[2] = human, multiple dosing, total daily doses of up to 6.0 g; cited from earlier work
[3] = Water solubility / lipophilicity of the API; assay type: physicochemical
[4] = Polymorph screening study, summary of forms; assay type: physicochemical; settings: Table 12 summary
Method: A polymorph screening study was performed on valomaciclovir active pharmaceutical ingredient. The screen entailed recrystallizing the material using solvent recrystallization, recrystallization from the melt, annealing experiments, and slurry experiments. Overall, the API was recrystallized under more than 100 different crystal growth conditions and analyzed using powder x-ray diffraction. A chemometric treatment of the x-ray data was used to categorize the samples into different groups. These groups were studied using thermal, optical, spectroscopic and other tools to elucidate which groups represent unique solid state forms of the API.
The raw diffraction data generated from the polymorph screening experiments (solvent recrystallization, recrystallization from the melt, annealing, non-competitive slurries) were initially categorized into 8 different groups using a chemometric treatment. Analyses of these different groups were used to perform additional experiments (e.g. DSC, TGA, HSM, NMR, etc.) to refine the groups identified by the chemometric treatment.

[5] = Competitive and non-competitive slurry experiments in ethanol (energy relationships); assay type: physicochemical
Method: Competitive slurry experiments were performed using mixtures (normally 50:50) of the forms in ethanol and agitating at approximately 25° C. for several days. Noncompetitive slurries were performed by agitating excess solids of one form in ethanol at room temperature. […] In both the competitive and noncompetitive slurry experiments, the solids were vacuum filtered and analyzed by XRD. The XRD patterns are used to determine if the undissolved solids had transformed into a different polymorphic form. In one case, a different polymorphic form emerged that was different than either of the two forms initially present. This indicates both original forms were metastable to the final form isolated.

[6] = Particle and agglomerate size by polarized light microscopy in silicone oil; assay type: physicochemical
Source text: The particle size of the solid product of this invention can be evaluated in silicone oil using polarized light microscopy. In some embodiments, Polymorph A enriched valomaciclovir has particle size range from about 10 to about 300 microns as measured using this system.
Polarized light microscopy was used to evaluate the particle size range of the recrystallized samples in silicone oil. The particle size range is reported in Table 4 along with the powder flow data.
A Zeiss Universal microscope configured with a polarized visible light source and polarizable analyzer was used to evaluate the optical properties of the samples. Specimens were typically mounted on a microscope slide with a drop of immersion oil and a cover glass. Magnification was typically 250×. Observations of particle/crystal size and shape were recorded. The presence of birefringence was also noted.

[7] = Powder flow (Carr Index, tapped compressibility); assay type: physicochemical
Source text: The flow characteristics of the solid products of this invention can be measured by the Carr index [Pharmaceutical Preformulation and Formulation, A practical guide from candidate selection to commercial dosage form, Mark Gibson, Ed.; Interpharm Press, 2002; pages 386-7.) By subjecting a powder to mechanical forces, resistance to powder flow can be observed. The increase in bulk density (compressibility) of a powder subjected to tapping can be used to determine the Carr index. In some embodiments, the Polymorph A enriched valomaciclovir has a Carr index value range from about 35 to about 50.
By subjecting a powder to mechanical forces, resistance to powder flow can be observed. The increase in bulk density (compressibility) of a powder subjected to tapping can be used to determine the Carr index. This index was measured for each of the four recrystallized batches and tabulated below.
Powder flow characteristics were compared using the Carr Index. By subjecting a powder to mechanical forces, resistance to powder flow can be observed. The increase in bulk density (compressibility) of a powder subjected to tapping can be used to determine the Carr index. A summary of Carr indices and qualitative flow properties are summarized below in Table 13.
Batches were sieved to <1000 microns before testing. This was necessary to remove any clumps in the samples.

[8] = Powder flow (Carr Index, tapped compressibility); assay type: physicochemical; settings: visual observation
[9] = tested on: human varicella zoster virus (VZV); settings: cited from earlier work
[10] = tested on: HSV-I; settings: cited from earlier work
[11] = tested on: HSV-2; settings: cited from earlier work
[12] = tested on: Epstein-Barr virus (EBV); settings: cited from earlier work
[13] = tested on: human herpesvirus-6 (HHV-6); settings: cited from earlier work
[14] = Table 2, earlier batches, no unit in table (microns)
[15] = Table 2, earlier valomaciclovir batches, sieved to <1000 microns

Q: With `CCCCCCCCCCCCCCCCCC(=O)OC[C@H](CCOC(=O)[C@@H](N)C(C)C)Cn1cnc2c(=O)[nH]c(N)nc21` [valomaciclovir, L-valine, (3R)-3-[(2-amino-1,6-dihydro-6-oxo-9H-purin-9-yl)methyl]-4-[(1-oxooctadecyl)oxy]butyl ester] as the compound, how does the Zoster lesion healing [1] read?
A: Its Zoster lesion healing is “proof-of-concept for zoster lesion healing”.

Q: And the Safety and tolerability [2]?
A: Its Safety and tolerability is “safe and well tolerated”.

Q: What about the “Lipophilicity (in words)” value [3] of the same compound?
A: Its value is “fairly lipophilic”.

Q: And the “Solubility in water (in words)” value ([3]; water)?
A: The value was “practically insoluble in water”.

Q: With `CCCCCCCCCCCCCCCCCC(=O)OCC(CCn1cnc2c(=O)[nH]c(N)nc21)COC(=O)C(N)C(C)C` (stereo not shown) [Form B1] as the compound, how does the “Description (stability class of the polymorphic form)” value (“Description” for short) [4] read?
A: Its value is “Metastable Polymorph”.

Q: Which “Relative solubility of polymorphic forms (in words)” value [5] does the source give for `CCCCCCCCCCCCCCCCCC(=O)OCC(CCn1cnc2c(=O)[nH]c(N)nc21)COC(=O)C(N)C(C)C` (stereo not shown) [Form H] here?
A: Its value is “more soluble”.

Q: And the “Thermodynamic stability (in words)” value [5]?
A: The value was “less thermodynamically stable than the B polymorphs”.

Q: What does the source list for `CCCCCCCCCCCCCCCCCC(=O)OC[C@@H](CCn1cnc2c(=O)[nH]c(N)nc21)COC(=O)[C@@H](N)C(C)C` [Batch 12-03-018]?
A: Agglomerate Size [6, 14]: 100; Typical Particle Size Range [6, 14]: 5-40; Carr Index [7, 15]: 48

Q: For `CCCCCCCCCCCCCCCCCC(=O)OC[C@@H](CCn1cnc2c(=O)[nH]c(N)nc21)COC(=O)[C@@H](N)C(C)C` [Form A], which “Thermodynamic stability (in words)” value ([5]; from slurry experiments and thermal behaviour) is on record?
A: The value was “most stable polymorphic form; also recorded: more thermodynamically stable than the B polymorphs; also recorded: thermodynamically stable form”.

Q: And the “Thermodynamic stability (in words)” value ([5]; from slurry experiments and thermal behaviour, listed as Polymorph A)?
A: The value was “thermodynamically the most stable polymorph of valomaciclovir”.

Q: What about the “Relative solubility of polymorphic forms (in words)” value ([5]; inferred from slurry conversion / enantiotropic relationship) of the same compound?
A: Its value is “less soluble”.

Q: And the “Flowability (in words)” value ([7]; listed as Polymorph A)?
A: The value was “more flowable”.

Q: And the “Flowability (in words)” value ([7]; listed as Polymorph A enriched valomaciclovir)?
A: Its value is “good flow characteristics”.

Q: What about the “Description” value [4] of the same compound?
A: Its value is “Thermodynamically”.

Q: For `CCCCCCCCCCCCCCCCCC(=O)OCC(CCn1cnc2c(=O)[nH]c(N)nc21)COC(=O)C(N)C(C)C` (stereo not shown) [Form B3], which “Description” value [4] is on record?
A: Its value is “Metastable Polymorph”.

Q: For `CCCCCCCCCCCCCCCCCC(=O)OC[C@H](CCOC(=O)[C@@H](N)C(C)C)Cn1cnc2c(=O)[nH]c(N)nc21` [Batch 146756], which “Agglomerate Size” value [6, 14] is on record?
A: The value was 200.

Q: What about the “Typical Particle Size Range” value [6, 14] of the same compound?
A: The value was 5-20.

Q: And the “Flowability (in words)” value [7]?
A: The value was “extremely poor flowability”.

Q: What about the “Carr Index” value [7, 15] of the same compound?
A: The value was 64.

Q: What about the “Handleability and powder flow” value [8] of the same compound?
A: Its value is “poor handleability and poor powder flow”.

Q: With `CCCCCCCCCCCCCCCCCC(=O)OC[C@H](CCOC(=O)[C@@H](N)C(C)C)Cn1cnc2c(=O)[nH]c(N)nc21` [Batch 52772-5-8] as the compound, how does the “Typical Particle Size Range” value ([6]; Table 4, recrystallized samples, in silicone oil, no unit in table, listed as 52772-5-8) read?
A: Its value is 35-50.

Q: What about the “Carr Index” value ([7]; Table 4, recrystallized samples (ethanol or SDA 3C), listed as 52772-5-8) of the same compound?
A: Its value is 44.

Q: For `CCCCCCCCCCCCCCCCCC(=O)OCC(CCOC(=O)C(N)C(C)C)Cn1cnc2c(=O)[nH]c(N)nc21` (stereo not shown) [Batch 52772-3-17], which “Typical Particle Size Range” value ([6]; Table 4, recrystallized samples, in silicone oil, no unit in table, listed as 52772-3-17) is on record?
A: The value was 10-30.

Q: And the “Carr Index” value ([7]; Table 4, recrystallized samples (ethanol or SDA 3C), listed as 52772-3-17)?
A: The value was 56.

Q: With `CCCCCCCCCCCCCCCCCC(=O)OCC(CCn1cnc2c(=O)[nH]c(N)nc21)COC(=O)C(N)C(C)C` (stereo not shown) [Form B4] as the compound, how does the “Description” value [4] read?
A: The value was “Metastable Polymorph”.

Q: With `Nc1nc2c(ncn2C[C@H](CO)CCO)c(=O)[nH]1` [Form H2G] as the compound, how does the “Antiviral activity (in words)” value [9] read?
A: The value was “potent activity”.

Q: And the “Antiviral activity (in words)” value [10]?
A: The value was “potent activity”.

Q: And the “Antiviral activity (in words)” value [11]?
A: Its value is “potent activity”.

Q: What about the “Antiviral activity (in words)” value [12] of the same compound?
A: Its value is “potent activity”.

Q: And the “Antiviral activity (in words)” value [13]?
A: The value was “potent activity”.

Q: Which results are given for `CCCCCCCCCCCCCCCCCC(=O)OC[C@H](CCOC(=O)[C@@H](N)C(C)C)Cn1cnc2c(=O)[nH]c(N)nc21` [Batch 52772-8-10]?
A: Typical Particle Size Range ([6]; Table 4, recrystallized samples, in silicone oil, no unit in table, listed as 52772-8-10): 150-300; Carr Index ([7]; Table 4, recrystallized samples (ethanol or SDA 3C), listed as 52772-8-10): 38

Q: For `CCCCCCCCCCCCCCCCCC(=O)OCC(CCOC(=O)C(N)C(C)C)Cn1cnc2c(=O)[nH]c(N)nc21` (stereo not shown) [Batch 52772-2-7], which “Typical Particle Size Range” value ([6]; Table 4, recrystallized samples, in silicone oil, no unit in table, listed as 52772-2-7) is on record?
A: Its value is 20-50.

Q: What about the “Carr Index” value ([7]; Table 4, recrystallized samples (ethanol or SDA 3C), listed as 52772-2-7) of the same compound?
A: Its value is 53.

Q: Which “Description” value [4] does the source give for `CCCCCCCCCCCCCCCCCC(=O)OCC(CCOC(=O)C(N)C(C)C)Cn1cnc2c(=O)[nH]c(N)nc21` (stereo not shown) [Form B2] here?
A: Its value is “Metastable Polymorph”.
